The source of these data is patent US20040138241A1, “Novel use of arylethenesulfonamide derivative” (priority 2001, published 2004).

Where a name gives a salt, the structure may show the parent alone. Read-outs that look alike come from different tables or passages of the source.

The subject of series [1] is prostatic urethral pressure in anesthetized dogs. Type of series: in vivo, dog. The following applies: for EC50 value of increase of PUP, reduced into molar concentration: i.a. local administration, mean±standard error. The protocol:
After waiting for stabilization of hemodynamics following the operation, the balloon was fixed to the prostatic urethra and expanded, and a prostatic urethral pressure (PUP) was measured from a change in pressure within the balloon.
ET-1 (from 0.006 to 0.8 μg/kg i.a., molar concentration: from 0.0025 to 0.321 nmol/kg i.a.) and phenylephrine hydrochloride (from 0.06 to 8 μg/kg i.a.; molar concentration: from 0.307 to 39.3 nmol/kg i.a.) were locally administered, thereby comparing the dose-response curve of an increasing action of PUP by the drugs.
In the experiments, dogs in which a degree of increase of PUP was observed 40 cmH2O or more in the pre-contraction with phenylephrine hydrochloride (8 μg/kg i.a.) were used.

The test system of series [2] is urethral pressure in anesthetized dogs. Nature of the series: ET-1 induced increase of urethral pressure in the presence of α1 receptor blocker in anesthetized dog. To be noted: tamsulosin hydrochloride 10 μg/kg i.v. Type of series: in vivo. The protocol: A urethral pressure profile (UPP) was recorded according to the same operation method as in Test Example 3 .
Thirty minutes thereafter, the same amount of tamsulosin hydrochloride (10 μg/kg i.v.) was again intravenously administered.

Series [3] shares this test system. The text has this:
Male beagle dogs (body weight: from 8 to 13 kg) were subjected to artificial ventilation under the anesthesia with pentobarbital, a catheter was inserted into a left femoral artery for measurement of blood pressure and heart rate and a left femoral vein for administration of drug. A catheter for measurement of urethral pressure (from 8 to 10Fr, 2 holes, manufactured by Create Medic Co., Ltd.) was inserted from an external urethral meatus toward urinary bladder. An automatic syringe pump was connected with one end of the catheter, and a pressure transducer was connected with the other end thereof. […] At the same time, by drawing out the catheter from the urinary bladder into the external urethral meatus at a rate of 25 mm/min by an automatic drawing unit, the pressure was measured and recorded throughout urethra as a urethral pressure profile (UPP) as shown in FIG. 6.
In the blood pressure-response by ET-1 since the pressure increased after a transient reduction of pressure, measurement of the urethral pressure was started about 3 minutes after the administration. On the other hand, as phenylephrine hydrochloride caused an increase of pressure immediately after the administration, measurement of the urethral pressure was started immediately after the administration.
Three minutes after the administration, ET-1 (1 μg/kg) was again intravenously administered, and an action against the urethral pressure was studied similarly to the time of single administration.

The subject of series [4] is isolated rabbit prostate, urethra and bladder base preparations. Nature of the series: Concentration-response of agonists in isolated rabbit lower urinary tract preparations. To be noted: cumulative addition. In kind it is biochemical.
Procedure: Male Japanese white rabbits (from 3 to 5 kg, available from Kitayama Labes Co., Ltd.) were provided for experiments. Prostate, urethra and bladder were isolated from the rabbit to prepare ring preparations of smooth muscle. With respect to the bladder, a dorsal region of the bladder base was used as preparation. Each of the preparations was suspended in an organ bath filled with a Krebs-Henselit solution at 37 ° C., into which was then aerated a 95% O2-5% CO2 gas. A resting tension was subjected as 1g, and a tension change was isometrically measured. Incidentally, the organ bath for preventing adsorption of ET-1 was previously subjected to silicon treatment. After elapse of an equilibrium period for 60 minutes, the preparation was contracted twice by 10 μM phenylephrine hydrochloride to be stabilized the responsibility, and a main experiment was started.
ET-1 (from 0.1 to 1,000 nM), phenylephrine hydrochloride (from 0.01 to 100 μM), S6c (from 1 to 1,000 nM), or acetylcholine (from 0.01 to 1,000 μM) was cumulatively added to the organ bath to obtain a concentration-response curve. […] The contraction response to each agonists was expressed while defining the contraction by phenylephrine hydrochloride (10 μM) as obtained immediately therebefore as 100%.
Setting [5] is: ET-1 1 μg/kg i.v., phenylephrine hydrochloride 30 μg/kg i.v.

In the case of `CC[C@H](C)[C@H](NC(=O)[C@H](CC(=O)O)NC(=O)[C@H](CC(C)C)NC(=O)[C@H](Cc1cnc[nH]1)NC(=O)[C@@H]1CSSC[C@H](N)C(=O)N[C@@H](CO)C(=O)N[C@H]2CSSC[C@H](NC(=O)[C@H](CCC(=O)O)NC(=O)[C@H](CCCCN)NC(=O)[C@H](CC(=O)O)NC(=O)[C@H](CCSC)NC(=O)[C@H](CC(C)C)NC(=O)[C@H](CO)NC(=O)[C@H](CO)NC2=O)C(=O)N[C@@H](C(C)C)C(=O)N[C@@H](Cc2ccc(O)cc2)C(=O)N[C@@H](Cc2ccccc2)C(=O)N1)C(=O)N[C@H](C(=O)N[C@@H](Cc1c[nH]c2ccccc12)C(=O)O)[C@@H](C)CC` [ET-1], the “duration of increase response of PUP relative to phenylephrine hydrochloride” value in series [1] (ET-1 0.4 μg/kg i.a. vs phenylephrine hydrochloride 2 μg/kg i.a., typical example) was “about 3 times”. Besides, in series [1] (anesthetized dog, i.a.), the “concentration for increasing action of prostatic urethral pressure, times lower than phenylephrine hydrochloride” value was “about 100 times” and the “maximum response of PUP, of that of phenylephrine hydrochloride” value was determined as 43.9 ±5.2%. In addition, the “EC50 value of increase of PUP, reduced into molar concentration” value in series [1] (anesthetized dog) was determined as 0.08 ± 0.03 nmol/kg. The “action on urethral pressure in the presence of tamsulosin hydrochloride” value in series [2] (ET-1 1 μg/kg i.v.) is on record as “increased the urethral pressure of the whole of lower urinary tract including prostate”. Besides, the “action on urethral pressure (UPP)” value in series [3] (setting [5]) is on record as “remarkable increase of the pressure throughout urethra other than prostate in addition to an increase of the urethral pressure of prostate”. In series [3] (dog, in vivo, iv), the “action on mean blood pressure” value is listed as “without substantially affecting the mean blood pressure”.

`CNC[C@H](O)c1cccc(O)c1` [phenylephrine hydrochloride]: in series [1] (anesthetized dog), the “EC50 value of increase of PUP, reduced into molar concentration” value was determined as 7.47 ± 2.82 nmol/kg. Besides, the “degree of increase of PUP relative to ET-1” value in series [1] (phenylephrine hydrochloride 2 μg/kg i.a. vs ET-1 0.4 μg/kg i.a., typical example) was “higher about twice”. Also, in series [3] (setting [5]), the “action on mean blood pressure” value is recorded as “increase of mean blood pressure” and the “action on urethral pressure (UPP)” value is given as “remarkable increase of the urethral pressure of prostate”.

For `CCOc1ccccc1OCCN[C@H](C)Cc1ccc(OC)c(S(N)(=O)=O)c1` [tamsulosin hydrochloride], the “action on prostatic urethral pressure” value in series [2] (anesthetized dogs) is given as “reduced the prostatic urethral pressure”.

For sarafotoxin S6c [Compound S6c], the “contraction of isolated preparations (in words)” value in series [4] is recorded as “not substantially observed”.
